Measured values from patent US5977104A, “Use of NK-1 receptor antagonists for treating bipolar disorders” (Merck Sharp & Dohme Ltd., priority 1996, dated 1999).
Read-outs that look alike come from different tables or passages of the source.

Assays:
[1] = tested on: separation-induced vocalisations by guinea-pig pups; assay: Separation-induced vocalisation in guinea-pig pups (Assay 4); assay type: in vivo; details: Cavia porcellus, po, 4 hr. pretreatment; read-out: guinea-pig vocalisation (4 hr. pretreatment): ID50
Method: Male and female guinea-pigs pups are housed in family groups with their mothers and littermates throughout the study. Experiments are commenced after weaning when the pups are 2 weeks old. Before entering an experiment, the pups are screened to ensure that a vigorous vocalisation response is reproducibly elicited following maternal separation. The pups are placed individually in an observation cage (55 cm×39 cm×19 cm) in a room physically isolated from the home cage for 15 minutes and the duration of vocalisation during this baseline period is recorded. […] On test days each pup receives an oral dose or an s.c. or i.p. injection of test compound or vehicle and is then immediately returned to the home cage with its mother and siblings for 30 to 60 minutes (or for up to 4 hours following an oral dose, dependent upon the oral pharmacokinetics of the test compound) before social isolation for 15 minutes as described above. […] Between 6 and 8 animals receive each test compound at each dose tested.

[2] = tested on: foot tapping in gerbils induced by NK-1 receptor agonist GR73632; assay: Gerbil foot-tapping (Assay 2), induced by central infusion of NK-1 receptor agonist GR73632; assay type: in vivo, Mongolian gerbil; details: Meriones unguiculatus, iv
Text: CNS-penetrant NK-1 receptor antagonists for use in the present invention can be identified by their ability to inhibit foot tapping in gerbils induced by anxiogenic agents (such as pentagastrin) or central infusion of NK-1 receptor agonists such as GR73632, or caused by aversive stimulation such as foot shock or single housing, based on the method of Rupniak & Williams, Eur. J. Pharmacol., 1994, 265, 179.
Male or female Mongolian gerbils (35-70 g) are anaesthetised by inhalation of an isoflurane/oxygen mixture to permit exposure of the jugular vein in order to permit administration of test compounds or vehicle in an injection volume of 5ml/kg i.v. Alternatively, test compounds may be administered orally or by subcutaneous or intraperitoneal routes. A skin incision is then made in the midline of the scalp to expose the skull. […]

[3] = tested on: cisplatin-induced emesis in ferrets; assay: Ferret emesis (Assay 3), cisplatin-induced; assay type: in vivo; details: Mustela putorius, po, 4 h; p.o., cisplatin 10 mg/kg i.v. at 60 minutes following dosing; read-out: ferret emesis: ID90
Method: Ten minutes later they are fed with approximately 100 g of tinned cat food. At 60 minutes following oral dosing, cisplatin (10 mg/kg) is given i.v. via a jugular vein catheter inserted under a brief period of halothane anaesthesia. The catheter is then removed, the jugular vein ligated and the skin incision closed. The ferrets recover rapidly from the anaesthetic and are mobile within 10-20 minutes. The animals are observed continuously during recovery from the anaesthetic and for 4 hours following the cisplatin injection, after which time the animals are killed humanely. The numbers of retches and vomits occurring during the 4 hours after cisplatin administration are recorded by trained observers.

OC[C@@H](O[C@H]1OCCN(Cc2nc[nH]n2)[C@H]1c1ccc(F)cc1)c1cc(C(F)(F)F)cc(C(F)(F)F)c1 [2-(R)-(1-(S)-(3,5-bis(trifluoromethyl)phenyl)-2-hydroxyethoxy)-3-(S) -(4-fluorophenyl)-4-(1,2,4-triazol-3-yl)methylmorpholine]
ED50 [1]: 0.91 mg/kg
ED50 ([2]; 5 min, i.v., immediately prior to GR73632 challenge (5 mins.), read-out: gerbil foot-tapping (5 mins.): ID50): 0.38 mg/kg
ED50 ([2]; 24 hours prior to central NK1 agonist challenge, read-out: gerbil foot-tapping (24 hrs.): ID50): 2.2 mg/kg
ED90 [3]: 1 mg/kg
